Source: ChEMBL document CHEMBL3817806, “Novel benzimidazol-2-ylidene carbene precursors and their silver(I) complexes: Potential antimicrobial agents” (2016)
Converted amounts (≈) assume the structure as drawn.

How the values were obtained:
Format in all cases: functional
[1] = test system: Escherichia coli; test: Antibacterial activity against Escherichia coli ATCC 25922 after 16 to 20 hrs by agar dilution method
[2] = test system: Staphylococcus aureus; test: Antibacterial activity against Staphylococcus aureus ATCC 29213 after 16 to 20 hrs by agar dilution method
[3] = test system: Enterococcus faecalis; test: Antibacterial activity against Enterococcus faecalis ATCC 29212 after 16 to 20 hrs by agar dilution method
[4] = test system: Pseudomonas aeruginosa; test: Antibacterial activity against Pseudomonas aeruginosa ATCC 27853 after 16 to 20 hrs by agar dilution method
[5] = test system: Candida albicans; test: Antifungal activity against Candida albicans ATCC 10231 after 48 hrs by agar dilution method; conditions: ATCC 10231, 48 h
[6] = test system: Candida tropicalis; test: Antifungal activity against Candida tropicalis ATCC 13803 after 48 hrs by agar dilution method; conditions: ATCC 13803, 48 h

Q: How did the MIC [1] turn out when `CCOc1ccccc1OCCn1c[n+](Cc2ccc(C(C)(C)C)cc2)c2ccccc21.[Br-]` was run?
A: 50 µg/mL

Q: And the MIC [2]?
A: 50 µg/mL

Q: What about the MIC [3] of the same compound?
A: 200 µg/mL

Q: What about the MIC [4] of the same compound?
A: 400 µg/mL

Q: And the MIC [5]?
A: 50 µg/mL

Q: What about the MIC [6] of the same compound?
A: 50 µg/mL

Q: Which MIC [1] does the source give for `CCOc1ccccc1OCCn1c[n+](CCOC)c2ccccc21.[Br-]` here?
A: 800 µg/mL

Q: What about the MIC [2] of the same compound?
A: 800 µg/mL

Q: What about the MIC [3] of the same compound?
A: 800 µg/mL

Q: And the MIC [4]?
A: 800 µg/mL

Q: What about the MIC [5] of the same compound?
A: 800 µg/mL

Q: And the MIC [6]?
A: 800 µg/mL

Q: Which results are given for `CCOc1ccccc1OCCn1c[n+](Cc2ccc(C(C)C)cc2)c2ccccc21.[Br-]`?
A: MIC [1]: 800 µg/mL; MIC [2]: 800 µg/mL; MIC [3]: 800 µg/mL; MIC [4]: 800 µg/mL; MIC [5]: 400 µg/mL; MIC [6]: 400 µg/mL

Q: What does the source list for `CCCC[n+]1cn(CCOc2ccccc2OCC)c2ccccc21.[Br-]`?
A: MIC [1]: 50 µg/mL; MIC [2]: 50 µg/mL; MIC [3]: 50 µg/mL; MIC [4]: 50 µg/mL; MIC [5]: 25 µg/mL; MIC [6]: 25 µg/mL

Q: Which MIC [1] does the source give for `CCOc1ccccc1OCCn1c[n+](Cc2c(C)c(C)cc(C)c2C)c2ccccc21.[Br-]` here?
A: 400 µg/mL

Q: What about the MIC [2] of the same compound?
A: 400 µg/mL

Q: And the MIC [3]?
A: 800 µg/mL

Q: What about the MIC [4] of the same compound?
A: 800 µg/mL

Q: What about the MIC [5] of the same compound?
A: 400 µg/mL

Q: And the MIC [6]?
A: 400 µg/mL

Q: With `CCOc1ccccc1OCCn1c[n+](CCOc2ccccc2OCC)c2ccccc21.[Br-]` as the compound, how does the MIC [1] read?
A: 200 µg/mL

Q: And the MIC [2]?
A: 200 µg/mL

Q: What about the MIC [3] of the same compound?
A: 400 µg/mL

Q: What about the MIC [4] of the same compound?
A: 400 µg/mL

Q: And the MIC [5]?
A: 200 µg/mL

Q: And the MIC [6]?
A: 200 µg/mL

Q: How did the MIC [1] turn out when `CCOc1ccccc1OCCn1c[n+](Cc2c(C)cc(C)cc2C)c2ccccc21.[Br-]` was run?
A: 50 µg/mL

Q: And the MIC [2]?
A: 50 µg/mL

Q: What about the MIC [3] of the same compound?
A: 800 µg/mL

Q: What about the MIC [4] of the same compound?
A: 800 µg/mL

Q: And the MIC [5]?
A: 50 µg/mL

Q: And the MIC [6]?
A: 50 µg/mL

Q: With `CCOc1ccccc1OCCn1c[n+](Cc2cccc(OC)c2)c2ccccc21.[Cl-]` as the compound, how does the MIC [1] read?
A: 800 µg/mL

Q: What about the MIC [2] of the same compound?
A: 800 µg/mL

Q: What about the MIC [3] of the same compound?
A: 800 µg/mL

Q: And the MIC [4]?
A: 800 µg/mL

Q: And the MIC [5]?
A: 800 µg/mL

Q: And the MIC [6]?
A: 800 µg/mL

Q: For `CC1(C)S[C@@H]2[C@H](NC(=O)[C@H](N)c3ccccc3)C(=O)N2[C@H]1C(=O)O` [AMPICILLIN], which MIC [1] is on record?
A: 3.12 µg/mL (≈ 8.93 µM)

Q: What about the MIC [2] of the same compound?
A: 3.12 µg/mL (≈ 8.93 µM)

Q: And the MIC [3]?
A: 1.56 µg/mL (≈ 4.46 µM)

Q: For `O=C(O)c1cn(C2CC2)c2cc(N3CCNCC3)c(F)cc2c1=O` [CIPROFLOXACIN], which MIC [2] is on record?
A: 0.39 µg/mL (≈ 1.18 µM)

Q: And the MIC [3]?
A: 0.78 µg/mL (≈ 2.35 µM)

Q: What about the MIC [4] of the same compound?
A: 3.12 µg/mL (≈ 9.42 µM)

Q: Which MIC [5] does the source give for `OC(Cn1cncn1)(Cn1cncn1)c1ccc(F)cc1F` [FLUCONAZOLE] here?
A: 3.12 µg/mL (≈ 10.2 µM)

Q: And the MIC [6]?
A: 3.12 µg/mL (≈ 10.2 µM)
